Reference: US20260053942A1, “STING AGONIST IMMUNOSTIMULATORY ANTIBODY DRUG CONJUGATES” (ASTELLAS PHARAMA INC., priority 2024, published 2026)

Experiments:
[1] = tested on: NCI-H292 cells; experiment: Immunogenic cell death: cell surface calreticulin (CALR) on live cells (flow cytometry), 48 hours; type: cell-based, human; details: for induction of CALR on live cells compared to untreated cells: NCI-H292 cells
Procedure: (§1) Immunogenic cell death elicited by the TROP2 ADC, iSAC, iADCs and exatecan were measured by cell surface translocate of calreticulin and release of HMGB1 in the cell culture supernatant. Briefly, TROP2 positive cell line NCI-H292 were seeded into a 96-well flat bottom plate 4 hours prior to the initialization of the assay. Test articles were formulated at a 2× starting concentration in cell culture medium, and samples were serial diluted (1:3) under sterile conditions and added onto the cells in duplicates. After incubation at 37° C. in a CO2 incubator for 48 hours, the cell supernatant was collected for measuring HMGB1 and the adherent cells were collected for calreticulin expression on the cell surface.
NCI-H292 cells were detached using Accutase (Innovative Cell Technologies) and viability was accessed using a 1:500 dilution of Zombie NIR viability dye. […] Surface calreticulin measures on the live cells were gathered using an Attune NXT Flow Cytometer (ThermoFisher Scientific) to obtain median fluorescence intensity values. All data were fitted with non-linear regression analysis, using log(agonist) vs. response, variable slope, 4 parameter fit equation using GraphPad Prism.

[2] = tested on: TROP2 positive NCI-H292, NCI-H441 cells and TROP2 negative NCI-H460 and NCI-H1703 cells; experiment: Cell proliferation (cell killing) assay, cell line panel; type: cell-based, human; details: all TROP2 positive and negative cell lines tested
Procedure: (§2) The cytotoxicity of the ADCs, iSACs and iADCs was measured in a cell proliferation assay. TROP2 positive NCI-H292, NCI-H441 cells and TROP2 negative NCI-H460 and NCI-H1703 cells were obtained from ATCC (American Type Culture Collection) and maintained in DMEM/F12 (1:1), high glucose (Corning) supplemented with 10% heat-inactivated fetal bovine serum (Thermo Scientific), 2 mM glutamax (Thermo Scientific), and 1× Penicillin/Streptomycin (Corning).
(§3) Cells were collected and counted by the Vi-CELL Cell Viability Analyzers (Beckman Coulter). A total of 7500 cells in a volume of 50 uL were seeded in each well of a 96-well flat bottom white Polystyrene plate. Test articles were diluted at 2× final concentration in the cell culture medium and 50 uL was added into each treatment well. Assay plates were cultured at 37° C. in a CO2 incubator for 120 hours. For cell viability measurement, 60 μL of Cell Titer-Glo® reagent (Promega Corp. Madison, WI) was added into each well, and plates were processed as per product instructions. Relative luminescence was measured on an ENVISION® plate reader (Perkin-Elmer; Waltham, MA). Relative luminescence readings were converted to % viability using untreated cells as controls. Data was fitted with non-linear regression analysis, using log(inhibitor) vs. response-variable slope, 4 parameter fit equation using GraphPad Prism (GraphPad v 5.00, Software; San Diego, CA).

[3] = tested on: NCI-H460 cells and human PBMCs; experiment: NCI-H460/PBMC co-culture (TROP2 negative): cytokine (IP-10) release; type: cell-based; set-up: key: NC = Not Calculable due to incomplete curve
Procedure: (§4) For the co-culture assay, cancer cells were plated on transparent flat bottom polystyrene plates and allowed to attach overnight. The next day, serially diluted (1:4) test articles were formulated at 3× starting concentration in complete RPMI media and added onto each well. Human PBMCs were thawed and resuspended in RPMI supplemented with 10% heat-inactivated fetal bovine serum from Hyclone, 1% Penicillin/Streptomycin and 2 mM/L-glutamax. PBMCs were then added into the same well at a final ratio of PBMCs:cancer cells=30:1. Plates were incubated for 2 or 3 days at 37° C. with 5% CO2 in a cell culture incubator.
(§5) To measure the cytokine released in this assay, customized MSD V-plex plates were ordered to measure human IL6, IP-10, TNFα, IFNγ, IL-1α, MCP-1, MIP1α. The supernatant was thawed and diluted 1:50 using dilution buffer provided by the vendor before being added into the MSD plates. Cytokine measurement in the cell culture supernatant was carried out using protocols provided by the vendor. Raw data generated by the Meso Scale Discovery (MSD®) SQ120 plate reader were imported into MSD Discovery Workbench software. Unknown sample values were interpolated from standard curves by the software and imported into GraphPad Prism. Each cytokine level was fitted with non-linear regression analysis, using log(agonist) vs. response, variable slope, 4-parameter fit equation in GraphPad Prism. […]

[4] = tested on: NCI-H441 cells; experiment: NCI-H441/PBMC co-culture (title of Table 16): tumor cell killing; type: cell-based, human
Procedure: (§6) The ability of different TROP2 iADCs to induce cancer cell killing, immune activation, and cytokine release was evaluated in an in vitro co-culture assay with human cancer cells and human PBMCs.
(§7) Residual RBCs were removed using ACK lysis buffer (Gibco) for 10 minutes, followed by DPBS wash. Isolated PBMCs were counted, resuspended in freezing medium (Sigma) and stored in a freezing vessel at −80° C. for 24 hours before being transferred to vapor-phase liquid nitrogen for long-term storage.
as §4
(§8) On the day of sample collection, cell culture supernatants were collected and stored at −80° C. until cytokine release analyses were performed. […] Cells were then washed with FACS buffer again and read on Cytek flow cytometer. […]

[5] = tested on: NCI-H441 cells and human PBMCs; experiment: NCI-H441/PBMC co-culture (title of Table 16): cytokine (IP-10) release; type: cell-based; set-up: key: NC = Not Calculable due to incomplete curve
Procedure: as §4, §5

[6] = tested on: NCI-H292 cells; experiment: NCI-H292/PBMC co-culture: tumor cell killing (NCI-H292 cell count); type: cell-based, human; details: TROP2 positive NCI-H292/PBMC co-culture
Procedure: as §6, §7
(§9) For the co-culture assay, cancer cells were plated on transparent flat bottom polystyrene plates and allowed to attach overnight. The next day, serially diluted (1:4) test articles were formulated at 3× starting concentration in complete RPMI media and added onto each well. […]
as §8
(§10) The ability of different TROP2 iADCs to induce cancer cell killing, immune activation, and cytokine release was evaluated in an in vitro co-culture assay with TROP2 positive CaoV3 cells or NCI-H292 cells and human PBMCs. h1925-C06, an anti-TROP2 antibody, was conjugated to LP-C1 on the heavy chain Y180/F404 sites and to different STING agonist linker payloads at light chain K42 sites. […]

[7] = tested on: human PBMCs; experiment: NCI-H292/PBMC co-culture: monocyte/immune cell count and activation (FACS); type: cell-based; details: TROP2 positive NCI-H292/PBMC co-culture
Procedure: as §6, §7, §9, §8, §10

[8] = tested on: NCI-H292 cells; experiment: Immunogenic cell death: HMGB1 release in supernatant (sandwich ELISA), 48 hours; type: cell-based, human
Procedure: as §1
HMGB1 released in the supernatant was assessed via sandwich ELISA using mouse anti-human HMGB1 clone 2F6 (Sigma-Aldrich) as the capture, polyclonal rabbit anti-human HMGB1 (Abcam) as secondary, and polyclonal goat anti-rabbit IgG HRP as the detection antibody. The HMGB1 concentrations in the cell culture medium were calculated based a standard curve built on commercially available recombinant human HMGB1 (R&D Systems).

[9] = tested on: NCI-H292 cells; experiment: IP-10 and IL-6 release from TROP2 positive NCI-H292 cells, 120 hours (MSD); type: cell-based, human; details: for EC50: Homo sapiens
Procedure: The cell supernatant was collected and IP-10 and IL-6 released in the cell culture medium was measured using Streptavidin single spot 96 well plates, compatible human antibody pairs, and calibrating solutions commercially available from MesoScale Discovery. Raw data generated by the Meso Scale Discovery (MSD®) SQ120 plate reader was imported into MSD Discovery Workbench software. Unknown sample values were interpolated from standard curves by the software and imported into Graphpad Prism. Each cytokine level was fitted with non-linear regression analysis, using log(agonist) vs. response, variable slope, 4-parameter fit equation in GraphPad Prism.

[10] = tested on: NCI-H460 cells; experiment: NCI-H460/PBMC co-culture (TROP2 negative): tumor cell killing; type: cell-based, human
Procedure: as §6, §7, §4
On the day of sample collection, cell culture supernatants were collected and stored at −80° C. until cytokine release analyses were performed. All the cells in the well were combined (both suspension and adherent cells) and resuspended in 50 μL of PBS containing Live/Dead Fixable Violet Dead Cell Stain (Thermo Fisher) and 1× human Fc block (BD Biosciences) and incubated at 37° C. for 20 minutes. […] After incubation on ice for 1 hour, cells were washed with FACS buffer and fixed with 50 uL/well of 2% PFA (paraformaldehyde) for 20 minutes. Cells were then washed with FACS buffer again and read on Cytek flow cytometer. FACS data analysis was done by Flowjo software to identify monocytes, B cells, CD4+ T cells, CD8+ T cells, NK cells and Dendritic cells and their activation status. Data from Flowjo was exported and plotted using non-linear regression analysis, log(agonist/inhibitor) vs. response, variable slope, 4-parameter fit equation in GraphPad Prism. […]

[11] = tested on: NCI-H1703 (Trop2-); experiment: Cell proliferation (cell killing) assay, Cell Titer-Glo, 120 hours; type: cell-based, human; details: for EC50: Homo sapiens
Procedure: as §2, §3

[12] = tested on: NCI-H441 (Trop2+); experiment: as above; type: cell-based, human; details: for EC50: Homo sapiens
Procedure: as §2, §3

[13] = tested on: NCI-H460 (Trop2-); experiment: as above; type: cell-based, human; details: for EC50: Homo sapiens
Procedure: as §2, §3

[14] = tested on: NCI-H292 (Trop2+); experiment: as above; type: cell-based, human; details: for EC50: Homo sapiens
Procedure: as §2, §3

[15] = TROP2 positive NCI-H292 cells, read-out: IL-6 Release EC50
[16] = TROP2 positive NCI-H292 cells, read-out: IP-10 Release EC50
[17] = NCI-H292 cells, read-out: IL-6 induction EC50
[18] = NCI-H292 cells, read-out: IP-10 induction EC50

Row | SMILES | induction of CALR on live cells compared to untreated cells [1] | cell killing (in words) [2] | release of HMGB1 into the cell culture supernatant [8] [ng/mL] | HMGB-1 Release Span ([8]; supernatant) [ng/mL] | EC50 [9, 15] [nM] | EC50 [9, 16] [nM] | IL-6 Release Span ([9]; TROP2 positive NCI-H292 cells) [pg/mL] | IP-10 Release Span ([9]; TROP2 positive NCI-H292 cells) [pg/mL] | Span cell killing [11] [%] | EC50 [11] [nM] | Span cell killing [12] [%] | EC50 [12] [nM] | Span cell killing [13] [%] | EC50 [13] [nM] | Span cell killing [14] [%] | EC50 [14] [nM] | EC50 [9, 17] [nM] | EC50 [9, 18] [nM] | further results
1 | CC[C@@]1(O)C(=O)OCc2c1cc1n(c2=O)Cc2c-1nc1cc(F)c(C)c3c1c2[C@@H](N)CC3 [Exatecan, exatecan, reference compound] | ~2 fold | good cell killing | ~70 | 55 | 14.7 | 0.87 | 1410 | 203 | 95 | 1.04 | 89 | 0.57 | 83 | 0.97 | 80 | 0.88 |  |  | EC50 ([1]; Homo sapiens, NCI-H292 live cells, cell surface): 0.19 nM; Calreticulin Span ([1]; NCI-H292 live cells, cell surface): 783 MFI; IP-10 Release Span [3]: NC; IC50 ([4]; Homo sapiens, tumor cell killing, read-out: Cancer Cell Count IC50): 0.44 nM; Cancer Cell Count Span ([4]; Span = Top minus Bottom of dose response curve): 5,749 Cell Count; IP-10 Release Span [5]: NC; tumor cell killing (in words) [6]: potent tumor cell killing; immune cell activation and cytokine release (in words) [7]: did not induce activation of any immune populations; EC50 ([8]; Homo sapiens, supernatant, read-out: HMGB-1 Release EC50): 2.08 nM; induction of IP-10 and IL-6 release (in words) ([9]; NCI-H292 cells): not; IC50 ([10]; Homo sapiens, NCI-H460/PBMC co-culture, TROP2 negative, tumor cell killing, read-out: Cancer Cell Count IC50): 0.38 nM; Cancer Cell Count Span ([10]; NCI-H460/PBMC co-culture, TROP2 negative): 23,530 Cell Count; tumor cell killing (in words) ([10]; TROP2 negative NCI-H460/PBMC co-culture): potent tumor cell killing
2 | CCn1nc(C)cc1C(=O)Nc1nc2cc(C(N)=O)cc(OC)c2n1C/C=C/Cn1c(NC(=O)c2cc(C)nn2CC)nc2cc(C(N)=O)cc(OCCCN3CCC(c4nnc5n4CCNC5)CC3)c21 [Compound S-3, 1-[(E)-4-[5-Carbamoyl-2-[(2-ethyl-5-methyl-pyrazole-3-carbonyl)amino]-7-[3-[4-(5,6,7,8-tetrahydro-[1,2,4]triazolo[4,3-a]pyrazin-3-yl)-1-piperidyl]propoxy]benzimidazol-1-yl]but-2-enyl]-2-[(2-ethyl-5-methyl-pyrazole-3-carbonyl)amino]-7-methoxy-benzimidazole-5-carboxamide] | no induction of CALR | did not result in significant cell killing | 30 | 11 | > 100 | > 100 | >8000 | >4000 | <15 | > 100 | <15 | > 100 | <15 | > 100 | <15 | > 100 | > 100 | > 100 | 
3 | CCn1nc(C)cc1C(=O)Nc1nc2cc(C(N)=O)ccc2n1C/C=C/Cn1c(NC(=O)c2cc(C)nn2CC)nc2cc(C(N)=O)cc(OCCCN3CC4(CNCCO4)C3)c21 [Compound S-1] | no induction of CALR | did not result in significant cell killing | 30 | 17 | > 100 | > 100 | >10000 | >4000 | <15 | > 100 | <15 | > 100 | <15 | > 100 | <15 | > 100 | > 100 | > 100 | 
